Consider 2 compounds from US20120052130A1, “GPR 119 MODULATORS” (Pfizer Inc., priority 2009, published 2012).

The test addresses T1, human GPR119 (Homo sapiens, UniProt Q8TDV5).
T1 sequence (Q8TDV5 1-335): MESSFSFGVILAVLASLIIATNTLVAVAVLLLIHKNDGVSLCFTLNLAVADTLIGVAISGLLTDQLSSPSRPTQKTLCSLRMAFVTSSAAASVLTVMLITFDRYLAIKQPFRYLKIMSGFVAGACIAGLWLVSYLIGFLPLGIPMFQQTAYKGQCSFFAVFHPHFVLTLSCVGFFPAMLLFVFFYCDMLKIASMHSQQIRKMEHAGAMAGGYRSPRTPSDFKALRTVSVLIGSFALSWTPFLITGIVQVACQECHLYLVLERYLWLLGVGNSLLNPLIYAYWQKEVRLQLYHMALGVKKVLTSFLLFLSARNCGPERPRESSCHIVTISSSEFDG
Kind of test: GPR 119 radioligand binding assay ([3H]-Compound A or [3H]-Compound B, membranes of HEK 293FT cells over-expressing hGPR119). Particulars: calculated from IC50 by Cheng-Prusoff; each line is a separate determination. Here is the method:
HEK 293FT cells (Invitrogen, Carlsbad, Calif.) were grown in a shake flask in 293Freestyle medium (Invitrogen) supplemented with 50 microg/mL neomycin and 10 mM HEPES (37 C, 8% carbon dioxide, shaking). The cells were centrifuged gently (approximately 500×g, 10 minutes) and the pellet resuspended in a mixture of Dulbecco's PBS(minus Mg++/−Ca++) supplemented with 18% fetal bovine serum (Sigma Aldrich) and P1 virus such that the multiplicity of infection (MOI) was 10 and the final cell density was 1.3×10^6/mL (total volume 2.5 liters). The cells were transferred to a 5 liter Wave Bioreactor Wavebag (Wave Technologies, MA) and incubated for 4 hours at 27 degrees Celsius (17 rocks/min, 7 degrees platform angle); at the end of the incubation period, an equal volume(2.5 liters) of 293Freestyle medium supplemented with 30 mM sodium butyrate (Sigma Aldrich) was added (final concentration=15 mM), and the cells were grown for 20 hours (37 degrees Celsius, 8% CO2 [0.2 liters/min}, 25 rocks/minute, 7 degrees platform angle). […]
The frozen cells were thawed on ice and centrifuged at 700×g (1400 rpm) for 10 minutes at 4 degrees Celsius. […] The protein concentration was determined using the Pierce BCA protein assay kit (Pierce reagents A #23223 and B #23224). […]

Usually Ki stands for a measure of affinity in units of concentration, obtained from inhibition or displacement. Turning to `Cc1c(O[C@@H]2[C@@H]3COC[C@H]2CN(C(=O)OC(C)C)C3)ncnc1N1CCc2cc(S(C)(=O)=O)ccc21` [Example 23, Isopropyl (9-syn)-9-({5-methyl-6-[5-(methylsulfonyl)-2,3-dihydro-1H-indol-1-yl]pyrimidin-4-yl}oxy)-3-oxa-7-azabicyclo[3.3.1]nonane-7-carboxylate], the Ki was 130 nM.

For `Cc1c(O[C@@H]2[C@@H]3COC[C@H]2CN(C(=O)OC2(C)CC2)C3)ncnc1N1CCc2ncccc21` [Example 28, 1-Methylcyclopropyl (9-syn)-9-{[6-(2,3-dihydro-1H-pyrrolo[3,2-b]pyridin-1-yl)-5-methylpyrimidin-4-yl]oxy}-3-oxa-7-azabicyclo[3.3.1]nonane-7-carboxylate], the Ki was 45.8 nM.
